In patent US20210268030A1, “FIBROADIPOGENIC PROGENITOR-DERIVED EXOSOMES FOR REGENERATION OF DYSTROPHIC MUSCLES” (EXOFIX S.R.L., priority 2018, published 2021):

Columns and labels:
Notch3 = Notch3 transcripts in MuSCs isolated from treated mdx mice; type: in vivo; settings: MuSCs isolated from mdx mice treated with TSA
Protocol: (§1) Animals were used at the specified age and treated for the indicated periods with daily intra peritoneal injections of Trichostatin A, TSA (0.6 mg/kg/day; #T8552, Sigma), dissolved in phospate-saline solution or in phospate-saline alone as vehicle control (CTR). Muscle injury was performed by intramuscular injection in Tibliais Anterior (TA) of Cardiotoxin—CTX− (10 μM, 10 mg/mL) (#L8102, Lotaxan Valence, France, http://www.latoxan.com), 3 days before mice sacrifice.
For RNA-sequencing sample preparation, MuSCs and FAPs were freshly isolated by FACS from 6 C57BI6 mdx male mice 8-weeks old treated or not with TSA for 15 days. RNA was collected using Trizol) reagent (#T9424, Sigma). About 100 ng/μL of total RNA was sent in duplicate to IGA (Istituto di Genomica Applicata, Udine) for RNA sequencing using Illumina TruSeq Stranded Total RNA kit Ribo-Zero GOLD on Illumina Hiseq2500 platform.
To investigate this hypothesis, we evaluated the effect of FAP-derived exosomes from HDACi-treated or control-treated mdx mice on MuSCs within single fibres isolated from WT mice. Freshly isolated single muscle fibres from tibialis anterior, extensor digitorum longus, gastrocnemius and soleus of C57BL6J mice were incubated with FAP-derived exosomes or whole conditioned media, and their effect on MuSCs was evaluated by monitoring the expression of Pax7, MyoD and DNA synthesis (EdU incorporation). […]

CD63 = test: In situ immunofluorescence for CD63 on muscle sections; type: in vivo, mdx mice
Protocol: as §1
For immunofluorescence analysis, cryo-sections and cells were fixed in 4% PFA for 10 min and permeabilized with 100% cold acetone (#32201, Sigma) for 6 min at −20° C. or 100% cold Methanol (#32213, Sigma) for 6 min at −20° or with 0.25% Triton for 15 min at RT. Muscle sections were blocked for 1 h with a solution containing 4% BSA (#A7030, Sigma) in PBS. […] Sections were incubated with DAPI in PBS for 5 minutes for nuclear staining, washed in PBS, and mounted with glycerol 3:1 in PBS. […]

miR-206 = test: qPCR of exosomal miR-206 from dissociated tibialis anterior muscles; type: in vivo, mdx mice; settings: TSA-treated mdx muscle compared to untreated control
Protocol: Exosomes were purified from tibialis anterior gently dissociated in serum-free DMEM (24 h). Cell debris and organelles were eliminated by centrifugation at 2,000 g for 20 min and exosomes were isolated using TEIR.
For microRNA validation, Total exosomal RNA was extracted with Total Exosome RNA Protein Isolation Kit (#4478545, Invitrogen by Thermo Fisher Scientific) and was retro-transcribed using the Qiagen reverse transcription kit (miScript II RT Kit, #218161, Qiagen) and pre-amplified using (miScript PreAMP PCR Kit, #331451, Qiagen).
All the conditions are provided in the manufacturer protocol.
Of note, transgenic miR-206 upregulation has been exploited as tool for the treatment of DMD and other muscular disorders (Liu et al., 2012; Williams et al., 2009; Fry et al., 2017). […] The same pattern could be observed in mdx mice, in which an abundant miR-206 signal was detected in the interstitium of tibialis anterior muscles, overlapping with the immunofluorescence staining of the FAP's marker Sca-1 (FIG. 3H). […] We performed a quantitative assessment of exosomal miR-206, by isolating whole tibialis anterior (TA) muscles from TSA-treated mdx muscle or untreated control mdx mice, followed by gentle dissociation and exosome isolation.

mdx mice = settings: young vs old mdx mice; Mozzetta et al. 2013, Saccone et al. 2014; cited from earlier work

CC(/C=C/C(=O)NO)=C\[C@@H](C)C(=O)c1ccc(N(C)C)cc1 [TSA, Trichostatin A]
Notch3 transcripts (Notch3): reduced
CD63 signal in the interstitium of muscles (CD63; 1 year-old mdx mice): could not increase
CD63-positive interstitial signal (CD63; mdx young mice (1.5-month), compared to young mdx CTR): significant increase
increase of miR-206 (miR-206): ~7 fold
regeneration (mdx mice): promotes regeneration in young, but not old
